The text below walks through data of patent publication US20240262848A1, “HETEROCYCLIC COMPOUNDS, COMPOSITIONS THEREOF, AND METHODS OF TREATMENT THEREWITH” (BeiGene, Ltd., priority 2022, published 2024).

In assay [1] the target is GST-tagged GDP-loaded KRAS G12V (amino acids 1-169) (Homo sapiens, UniProt P01116, G12V). The assay can be described thus: KRAS G12V probe displacement assay (TR-FRET). In kind it is binding. The note with it: Table 4; KRAS G12V 2 nM, biotinylated probe 2 2.5 nM. The method, then:
Plates are incubated at 24 °C for 1 hr. […] After 1 hr incubation at 24° C.

In assay [2] the test system is pERK1/2(THR202/TYR204) level in SW620 cell line. The assay is described as follows: KRAS G12V pERK assay in SW620 cells (HTRF). Format: cell-based. Particulars: Homo sapiens, SW-620, Table 4, 2 hrs compound treatment. The method, then: SW620 cell line was used in this study. Cells were maintained in RPMI 1640 supplemented with 10% fetal bovine serum (Thermo Fisher), 50 units/mL penicillin and streptomycin (Thermo Fisher) and kept at 37° C. in a humidified atmosphere of 5% CO2 in air. Cells were reinstated from frozen stocks that were laid down within 30 passages from the original cells purchased. 40000 cells per well were seeded into a 96-well plate and incubated overnight. Cells were treated with a 10-point dilution series. The final compound concentration is from 0 to 10 μM. After 2 hrs compound treatment, cells were lysed, and the pERK1/2(THR202/TYR204) level in the cell lysates was detected by HTRF kit (Cisbio). In brief, a total of 16 μL of cell lysate from each well of a 96-well plate was transferred to a 384-well white assay plate. Lysate from each well was incubated with 2 μL of Eu3+-cryptate (donor) labeled anti-phospho-ERK1/2 and 2 μL of D)2 (acceptor) labeled anti-phospho-ERK1/2 antibodies (Cisbio) overnight in dark at room temperature. When donor and acceptor are in close proximity, excitation of the donor with laser triggers a Fluorescence Resonance Energy Transfer (FRET) towards the acceptor, which in turn fluoresces at 655 nm wavelength. FRET signals were measured using a PHERAstar FSX reader (BMG Labtech). IC50 determination was performed by fitting the curve of percent inhibition versus the log of the inhibitor concentration using Dotmatics.
(In general: In TR-FRET formats the signal depends on donor and acceptor labels being close together.)

One may read the IC50 as the concentration at which inhibition is half-maximal. Low values mean greater potency, high ones weaker potency.

Sequence of GST-tagged GDP-loaded KRAS G12V (amino acids 1-169) (P01116 1-169 isoform P01116-2 G12V): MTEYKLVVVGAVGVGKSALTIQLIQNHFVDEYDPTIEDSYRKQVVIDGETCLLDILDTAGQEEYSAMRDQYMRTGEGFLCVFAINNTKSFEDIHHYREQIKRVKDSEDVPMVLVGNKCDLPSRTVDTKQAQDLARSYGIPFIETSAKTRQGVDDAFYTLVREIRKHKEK

Turning to `C[C@@H]1CCOc2c(Cl)c(-c3ccc(F)c4sc(N)c(C#N)c34)c(F)c3nc(OC[C@@]45CCCN4C[C@H](F)C5)nc(c23)N1C` [Example 19, 2-amino-4-((R)-9-chloro-11-fluoro-2-(((2R,7aS)-2-fluorotetrahydro-1H-pyrrolizin-7a(5H)-yl)methoxy)-4,5-dimethyl-4,5,6,7-tetrahydro-[1,5]oxazocino[4,3,2-de]quinazolin-10-yl)-7-fluorobenzo[b]thiophene-3-carbonitrile], the figures for the IC50 in assay [1] and in assay [2] were 0.65 nM and 22 nM, respectively.

In the case of `CC1CC(C)N(C)c2nc(OC[C@@]34CCCN3C[C@H](F)C4)nc3c(F)c(-c4cc(N)cc(Cl)c4C(F)(F)F)nc(c23)O1` (stereo partly drawn) [Example 21, 3-chloro-5-(4-fluoro-2-(((2R,7aS)-2-fluorotetrahydro-1H-pyrrolizin-7a(5H)-yl)methoxy)-8,10,11-trimethyl-8,9,10,11-tetrahydro-7-oxa-1,3,6,11-tetraazacycloocta[de]naphthalen-5-yl)-4-(trifluoromethyl)aniline], the IC50 in assay [1] stood at 1.7 nM; in assay [2] it was 26 nM.

Take `CC1COc2nc(-c3cc(N)cc(Cl)c3C(F)(F)F)c(F)c3nc(OC[C@@]45CCCN4C[C@H](F)C5)nc(c23)N1C` (stereo partly drawn) [Example 22, 3-chloro-5-(4-fluoro-2-(((2R,7aS)-2-fluorotetrahydro-1H-pyrrolizin-7a(5H)-yl)methoxy)-9,10-dimethyl-9,10-dihydro-8H-7-oxa-1,3,6,10-tetraazacyclohepta[de]naphthalen-5-yl)-4-(trifluoromethyl)aniline]: the IC50 in assay [1] amounted to 6.8 nM; in assay [2], 303 nM.

Take `CN1c2nc(OC[C@@]34CCCN3C[C@H](F)C4)nc3c(F)c(-c4cc(N)cc(Cl)c4C(F)(F)F)nc(c23)OCC12COC2` [Example 23, 3-chloro-5-(4-fluoro-2-(((2R,7aS)-2-fluorotetrahydro-1H-pyrrolizin-7a(5H)-yl)methoxy)-10-methyl-8H, 10H-7-oxa-1,3,6,10-tetraazaspiro[cyclohepta[de]naphthalene-9,3′-oxetan]-1(10a), 2,3a, 3a^1(6a), 5-pentaen-5-yl)-4-(trifluoromethyl)aniline]: the IC50 in assay [1] was 9.2 nM; in assay [2], 338 nM.

On to `CN1c2nc(OC[C@@]34CCCN3C[C@H](F)C4)nc3c(F)c(-c4cc(N)cc(Cl)c4C(F)(F)F)nc(c23)OCC12CCC2` [Example 24, 3-chloro-5-(4′-fluoro-2′-(((2R,7aS)-2-fluorotetrahydro-1H-pyrrolizin-7a(5H)-yl)methoxy)-10′-methyl-8′H, 10′H-7′-oxa-1′,3′,6′,10′-tetraazaspiro[cyclobutane-1,9′-cyclohepta[de]naphthalen]-1′(10a′), 2′,3a′, 3 al′(6a′), 5′-pentaen-5′-yl)-4-(trifluoromethyl)aniline], for which the IC50 came out at 2.6 nM in assay [1] and 95 nM in assay [2].

For `C[C@@H]1CCOc2nc(-c3cc(N)cc(Cl)c3C(F)(F)F)c(F)c3nc(OC[C@@]45CCCN4C[C@H](F)C5)nc(c23)N1C` [Example 26, 3-chloro-5-((R)-4-fluoro-2-(((2R,7aS)-2-fluorotetrahydro-1H-pyrrolizin-7a(5H)-yl)methoxy)-10,11-dimethyl-8,9,10,11-tetrahydro-7-oxa-1,3,6,11-tetraazacycloocta[de]naphthalen-5-yl)-4-(trifluoromethyl)aniline], the IC50 came to 0.79 nM in assay [1] and 32 nM in assay [2].

Take `CN1c2nc(OC[C@@]34CCCN3C[C@H](F)C4)nc3c(F)c(-c4ccc(F)c5sc(N)c(C#N)c45)c(Cl)c(c23)OCCC12COC2` [Example 28, 2-amino-4-(9′-chloro-11′-fluoro-2′-(((2R,7aS)-2-fluorotetrahydro-1H-pyrrolizin-7a(5H)-yl)methoxy)-4′-methyl-6′,7′-dihydro-4′H-spiro[oxetane-3,5′-[1,5]oxazocino[4,3,2-de]quinazolin]-10′-yl)-7-fluorobenzo[b]thiophene-3-carbonitrile]: the results for the IC50 in assay [1] and in assay [2] were 2.5 nM and 206 nM, respectively.

With `CN1c2nc(OC[C@@]34CCCN3C[C@H](F)C4)nc3c(F)c(-c4cc(N)cc(Cl)c4C(F)(F)F)nc(c23)OCC12CC2` [Example 29, 3-chloro-5-(4-fluoro-2-(((2R,7aS)-2-fluorotetrahydro-1H-pyrrolizin-7a(5H)-yl)methoxy)-10-methyl-8H, 10H-7-oxa-1,3,6,10-tetraazaspiro[cyclohepta[de]naphthalene-9,1′-cyclopropan]-1(10a), 2,3a, 3 al(6a), 5-pentaen-5-yl)-4-(trifluoromethyl)aniline], the IC50 turned out to be 0.95 nM in assay [1] and 56 nM in assay [2].

Turning to `CN1c2nc(OC[C@@]34CCCN3C[C@H](F)C4)nc3c(F)c(-c4cc(N)cc(Cl)c4C(F)(F)F)nc(c23)OCCC12CCC2` [Example 32, 3-chloro-5-(4′-fluoro-2′-(((2R,7aS)-2-fluorotetrahydro-1H-pyrrolizin-7a(5H)-yl)methoxy)-11′-methyl-8′,9′-dihydro-11′H-7′-oxa-1′,3′,6′,11′-tetraazaspiro[cyclobutane-1,10′-cycloocta[de]naphthalen]-1′(11a′), 2′,3a′, 3 al′(6a′), 5′-pentaen-5′-yl)-4-(trifluoromethyl)aniline], the IC50 in assay [1] amounted to 3.4 nM; in assay [2], 133 nM.

Take `CN1c2nc(OC[C@@]34CCCN3C[C@H](F)C4)nc3c(F)c(-c4cc(N)cc(Cl)c4C(F)(F)F)nc(c23)OCCC12CC(O)C2` (stereo partly drawn) [Example 33, 5′-(5-amino-3-chloro-2-(trifluoromethyl)phenyl)-4′-fluoro-2′-(((2R,7aS)-2-fluorotetrahydro-1H-pyrrolizin-7a(5H)-yl)methoxy)-11′-methyl-8′,9′-dihydro-11′H-7′-oxa-1′,3′,6′,11′-tetraazaspiro[cyclobutane-1,10′-cycloocta[de]naphthalen]-1′(11a′), 2′0.3a′, 3 al′(6a′), 5′-pentaen-3-ol]: the half-maximal inhibitory concentration (IC50) in assay [1] is 0.39 nM; in assay [2], 17 nM.

Regarding `CN1c2nc(OC[C@@]34CCCN3C[C@H](F)C4)nc3c(F)c(-c4cc(N)cc(Cl)c4C(F)(F)F)nc(c23)OC2CCCC21` (stereo partly drawn) [Example 45, 3-chloro-5-((7a, 10a-trans)-4-fluoro-2-(((2R,7aS)-2-fluorotetrahydro-1H-pyrrolizin-7a(5H)-yl)methoxy)-11-methyl-7a, 8,9,10,10a, 11-hexahydro-7-oxa-1,3,6,11-tetraazanaphtho[1,8-fg]azulen-5-yl)-4-(trifluoromethyl)aniline], the IC50 is 2.7 nM in assay [1] and 82 nM in assay [2].

Turning to `CN1c2nc(OC[C@@]34CCCN3C[C@H](F)C4)nc3c(F)c(-c4cc(N)cc(Cl)c4C(F)(F)F)nc(c23)O[C@H]2CCCC[C@@H]21` [Example 46, 3-chloro-5-((7aS,11aS)-4-fluoro-2-(((2R,7aS)-2-fluorotetrahydro-1H-pyrrolizin-7a(5H)-yl)methoxy)-12-methyl-7a, 8,10,11,11a, 12-hexahydro-9H-7-oxa-1,3,6,12-tetraazapleiaden-5-yl)-4-(trifluoromethyl)aniline], the figures for the IC50 in assay [1] and in assay [2] were 0.48 nM and 37 nM, respectively.

For `CN1c2nc(OC[C@@]34CCCN3C[C@H](F)C4)nc3c(F)c(-c4cc(N)cc(Cl)c4C(F)(F)F)nc(c23)O[C@H]2CCOC[C@@H]21` [Example 50, 3-chloro-5-((7aS,11aS)-4-fluoro-2-(((2R,7aS)-2-fluorotetrahydro-1H-pyrrolizin-7a(5H)-yl)methoxy)-12-methyl-7a, 8,11a, 12-tetrahydro-9H, 11H-7,10-dioxa-1,3,6,12-tetraazapleiaden-5-yl)-4-(trifluoromethyl)aniline], the IC50 in assay [1] was determined as 0.61 nM; in assay [2], 28 nM.

Regarding `CN1c2nc(OC[C@@]34CCCN3C[C@H](F)C4)nc3c(F)c(-c4cc(N)cc(Cl)c4C(F)(F)F)nc(c23)OC[C@H]2CCC[C@H]21` [Example 52, 3-chloro-5-((8aS,11aR)-4-fluoro-2-(((2R,7aS)-2-fluorotetrahydro-1H-pyrrolizin-7a(5H)-yl)methoxy)-12-methyl-8a, 9,10,11,11a, 12-hexahydro-8H-7-oxa-1,3,6,12-tetraazacyclopenta[5,6]cycloocta[1,2,3-de]naphthalen-5-yl)-4-(trifluoromethyl)aniline], the IC50 in assay [1] amounted to 6.5 nM; in assay [2], 158 nM.

Take `Cc1cc(N)cc(-c2nc3c4c(nc(OC[C@@]56CCCN5C[C@H](F)C6)nc4c2F)N(C)C2(CCO3)CC2)c1C(F)(F)F` [Example 53, 3-(4-fluoro-2-(((2R,7aS)-2-fluorotetrahydro-1H-pyrrolizin-7a(5H)-yl)methoxy)-11-methyl-8,9-dihydro-11H-7-oxa-1,3,6,11-tetraazaspiro[cycloocta[de]naphthalene-10,1′-cyclopropan]-1(11a), 2,3a, 3 al(6a), 5-pentaen-5-yl)-5-methyl-4-(trifluoromethyl)aniline]: the IC50 in assay [1] is 0.63 nM; in assay [2], 26 nM.
